Experimental data published in US10590123B2, “Pesticidally active amide heterocyclic derivatives with sulphur containing substituents” (SYNGENTA PARTICIPATIONS AG, priority 2014, dated 2020).

Legend:
Format in all cases: in vivo
[1] = system: Plutella xylostella (Diamond Back Moth); experiment: Example B3: Activity against Plutella xylostella, artificial diet; conditions: 120 h, application rate 200 ppm, L2 larvae, 5 days after infestation, read-out: effect in at least one of the two categories (mortality or growth inhibition)
Method: Example B3: Activity Against Plutella xylostella (Diamond Back Moth)
(§1) 24-well microtiter plates with artificial diet were treated with aqueous test solutions prepared from 10′000 ppm DMSO stock solutions by pipetting. After drying, the plates were infested with L2 larvae (10 to 15 per well). The samples were assessed for mortality and growth inhibition in comparison to untreated samples 5 days after infestation.

[2] = system: Spodoptera littoralis (Egyptian Cotton Leaf Worm); experiment: Example B1: Activity against Spodoptera littoralis, sprayed cotton leaf discs; conditions: foliar, 72 h, application rate 200 ppm, L1 larvae, 3 days after infestation, read-out: control in at least one of the three categories (mortality, anti-feedancy or growth inhibition)
Method: Example B1: Activity Against Spodoptera littoralis (Egyptian Cotton Leaf Worm)
Cotton leaf discs were placed on agar in 24-well microtiter plates and sprayed with aqueous test solutions prepared from 10′000 ppm DMSO stock solutions. After drying the leaf discs were infested with five L1 larvae. The samples were assessed for mortality, anti-feedant effect, and growth inhibition in comparison to untreated samples 3 days after infestation. Control of Spodoptera littoralis by a test sample is when at least one of mortality, anti-feedant effect, and growth inhibition is higher than the untreated sample.

[3] = system: Diabrotica Balteata (Corn Root Worm); experiment: Example B4: Activity against Diabrotica balteata, sprayed maize sprouts; conditions: 96 h, application rate 200 ppm, L2 larvae, 4 days after infestation, read-out: effect in at least one of the two categories (mortality or growth inhibition)
Method: Example B4: Activity Against Diabrotica Balteata (Corn Root Worm)
as §1, with “Maize sprouts, placed on an agar layer in 24-well” for “24-well”, “plates” for “plates with artificial diet”, “spraying.” for “pipetting.”, “(6” for “(10”, “10” for “15”, “4” for “5”

SMILES | percent effect (mortality or growth inhibition) at 200 ppm [1] | percent control (mortality, anti-feedant effect or growth inhibition) at 200 ppm [2] | percent effect (mortality or growth inhibition) at 200 ppm [3]
CCS(=O)(=O)c1cc(-c2ccc(C(F)(F)F)cn2)cnc1C(=O)N(C)c1nnc(C(F)(F)F)s1 [Compound P53] | ≥ 80% | ≥ 80% | ≥ 80%
CCS(=O)(=O)c1cc(-c2ccc(Cl)cc2)cnc1C(=O)Nc1nnc(C(F)(F)C(F)(F)F)s1 [Compound P13] | ≥ 80% |  | ≥ 80%
CCS(=O)(=O)c1cc(-c2ccc(C(F)(F)F)cc2)cnc1C(=O)Nc1nnc(C(F)(F)C(F)(F)F)s1 [Compound P10] |  |  | ≥ 80%
CCS(=O)(=O)c1cc(-c2cc(Cl)cc(Cl)c2)cnc1C(=O)N(C)c1nnc(C(F)(F)F)s1 [Compound P24] | ≥ 80% | ≥ 80% | ≥ 80%
CCS(=O)(=O)c1cc(-c2cccc(C#N)c2)cnc1C(=O)N(C)c1nnc(C(F)(F)F)s1 [Compound P23] | ≥ 80% | ≥ 80% | ≥ 80%
CCS(=O)(=O)c1cc(-c2cc(Cl)c(F)c(Cl)c2)cnc1C(=O)N(C)c1nnc(C(F)(F)F)s1 [Compound P27] | ≥ 80% | ≥ 80% | ≥ 80%
CCS(=O)(=O)c1ccc(-c2ccc(C(F)(F)F)cc2)nc1C(=O)N(C)c1nnc(C(F)(F)F)s1 [Compound P21, 3-ethylsulfonyl-N-methyl-6-[4-(trifluoromethyl)phenyl]-N-[5-(trifluoromethyl)-1,3,4-thiadiazol-2-yl]pyridine-2-carboxamide] | ≥ 80% | ≥ 80% | ≥ 80%
CCS(=O)(=O)c1cc(-c2cncc(C(F)(F)F)c2)cnc1C(=O)N(C)c1nnc(C(F)(F)F)s1 [Compound P55] |  | ≥ 80% | ≥ 80%
CCS(=O)(=O)c1cc(-c2ccc(Cl)c(Cl)n2)cnc1C(=O)N(C)c1nnc(C(F)(F)F)s1 [Compound P46] | ≥ 80% | ≥ 80% | ≥ 80%
CCS(=O)(=O)c1cc(-c2cccc(C#N)n2)cnc1C(=O)N(C)c1nnc(C(F)(F)F)s1 [Compound P50] | ≥ 80% | ≥ 80% | ≥ 80%
CCS(=O)(=O)c1cc(-c2ccc(-c3ccc(Cl)cc3)cc2)cnc1C(=O)N(C)c1nnc(C(F)(F)F)s1 [Compound P9] | ≥ 80% | ≥ 80% | ≥ 80%
CCS(=O)(=O)c1cc(-n2ccc(C(F)(F)F)n2)cnc1C(=O)Nc1nnc(C(F)(F)C(F)(F)F)s1 [Compound P7] |  |  | ≥ 80%
CCS(=O)(=O)c1ccc(-c2cnc(C(=O)N(C)c3nnc(C(F)(F)F)s3)c(S(=O)(=O)CC)c2)cc1 [Compound P3] | ≥ 80% | ≥ 80% | ≥ 80%
CCSc1cc(-n2ccc(C(F)(F)F)n2)cnc1C(=O)N(C)c1nnc(C(F)(F)F)s1 [Compound P16, 3-ethylsulfanyl-N-methyl-5-[3-(trifluoromethyl)pyrazol-1-yl]-N-[5-(trifluoromethyl)-1,3,4-thiadiazol-2-yl]pyridine-2-carboxamide] |  | ≥ 80% | ≥ 80%
